Here are results for 24 molecules from patent publication US8546588B2, “Substituted hydroxamic acids and uses thereof” (Millennium Pharmaceuticals, Inc., priority 2010, dated 2013).

As usually defined, the pIC50 is the negative decadic logarithm of the IC50, by convention in mol/L. A low value points to a high IC50.

pIC50: −log10 of the molar value.

This assay addresses T1, purified human HDAC6 (Homo sapiens, UniProt Q9UBN7).
T1 construct: purchased BPS Bioscience 5006
T1 sequence (Q9UBN7 1-1215): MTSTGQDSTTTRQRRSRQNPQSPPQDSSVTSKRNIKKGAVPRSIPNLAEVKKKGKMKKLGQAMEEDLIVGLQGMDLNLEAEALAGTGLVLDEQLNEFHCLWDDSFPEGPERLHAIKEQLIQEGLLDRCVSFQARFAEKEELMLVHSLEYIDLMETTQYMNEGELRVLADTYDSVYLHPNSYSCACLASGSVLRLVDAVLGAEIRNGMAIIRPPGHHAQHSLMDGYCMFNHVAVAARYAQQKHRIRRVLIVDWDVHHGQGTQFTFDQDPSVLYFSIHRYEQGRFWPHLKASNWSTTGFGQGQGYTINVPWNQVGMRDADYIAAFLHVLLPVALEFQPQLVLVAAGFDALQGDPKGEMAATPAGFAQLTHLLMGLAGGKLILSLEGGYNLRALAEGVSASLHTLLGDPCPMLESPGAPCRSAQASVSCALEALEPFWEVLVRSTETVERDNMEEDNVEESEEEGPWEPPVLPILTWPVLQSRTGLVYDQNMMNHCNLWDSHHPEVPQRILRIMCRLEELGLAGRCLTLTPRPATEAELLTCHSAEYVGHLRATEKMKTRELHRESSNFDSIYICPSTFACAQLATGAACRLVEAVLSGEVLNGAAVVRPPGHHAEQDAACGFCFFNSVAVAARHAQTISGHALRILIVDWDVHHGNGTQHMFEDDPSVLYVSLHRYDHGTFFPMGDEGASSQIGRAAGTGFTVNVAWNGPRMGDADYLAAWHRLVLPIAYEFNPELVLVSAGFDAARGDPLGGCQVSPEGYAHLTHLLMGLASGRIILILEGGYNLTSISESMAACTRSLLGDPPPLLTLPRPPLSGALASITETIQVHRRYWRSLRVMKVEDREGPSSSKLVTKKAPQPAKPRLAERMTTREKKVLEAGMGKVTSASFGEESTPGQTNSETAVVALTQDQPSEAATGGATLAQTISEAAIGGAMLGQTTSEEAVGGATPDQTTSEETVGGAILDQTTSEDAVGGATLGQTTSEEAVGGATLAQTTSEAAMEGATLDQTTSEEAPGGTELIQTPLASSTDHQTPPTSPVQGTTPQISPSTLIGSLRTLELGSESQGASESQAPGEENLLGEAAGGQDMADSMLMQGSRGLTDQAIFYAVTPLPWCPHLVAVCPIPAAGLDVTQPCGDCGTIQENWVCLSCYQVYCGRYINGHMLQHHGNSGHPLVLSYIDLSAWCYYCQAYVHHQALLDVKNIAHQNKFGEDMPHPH
In words: HDAC6 Enzyme Assay. Format: biochemical. The note with it: substrate Ac-Arg-Gly-Lys(Ac)-AMC peptide, 1 hour at 30° C. How it is done:
To measure the inhibition of HDAC6 activity, purified human HDAC6 (BPS Bioscience; Cat. No. 5006) is incubated with substrate Ac-Arg-Gly-Lys(Ac)-AMC peptide (Bachem Biosciences; Cat. No. I-1925) for 1 hour at 30° C. in the presence of test compounds or vehicle DMSO control. The reaction is stopped with the HDAC inhibitor trichostatin A (Sigma; Cat. No. T8552) and the amount of Arg-Gly-Lys-AMC generated is quantitated by digestion with trypsin (Sigma; Cat. No. T1426) and subsequent measurement of the amount of AMC released using a fluorescent plate reader (Pherastar; BMG Technologies) set at Ex 340 nm and Em 460 nm. Concentration response curves are generated by calculating the fluorescence increase in test compound-treated samples relative to DMSO-treated controls, and enzyme inhibition (IC50) values are determined from those curves.
For the molecule `CC(NC(=O)Nc1ccc(Oc2ccccc2)cc1)c1ccc(C(=O)NO)s1` (stereo not drawn) [Compound I-14, N-hydroxy-5-[1-({[(4-phenoxyphenyl)amino]carbonyl}amino)ethyl]thiophene-2-carboxamide], the pIC50 is greater than 7.00. As to `CC(NC(=O)NC(C)(C)C)c1ccc(C(=O)NO)s1` (stereo not drawn) [Compound I-34, 5-(1-{[(tert-butylamino)carbonyl]amino}ethyl)-N-hydroxythiophene-2-carboxamide], the pIC50 is 6.30 to 7.00. The molecule `COc1ccc(C(=O)N[C@H](C)c2ccc(C(=O)NO)s2)cc1` [Compound I-9, N-hydroxy-5-{(1R)-1-[(4-methoxybenzoyl)amino]ethyl}thiophene-2-carboxamide] gave a pIC50 greater than 7.00. Then `CC(NC(=O)Nc1ccc(Cl)c(C(F)(F)F)c1)c1ccc(C(=O)NO)s1` (stereo not drawn) [Compound I-10, 5-{1-[({[4-chloro-3-(trifluoromethyl)phenyl]amino}carbonyl)amino]ethyl}-N-hydroxythiophene-2-carboxamide], with greater than 7.00; and `CC(NC(=O)c1ccc(OCc2ccccc2)cc1)c1ncc(C(=O)NO)s1` (stereo not drawn) [Compound I-49, 2-(1-{[4-(benzyloxy)benzoyl]amino}ethyl)-N-hydroxy-1,3-thiazole-5-carboxamide], with greater than 7.00; and `C[C@H](NC(=O)c1ccc(S(C)(=O)=O)cc1)c1ncc(C(=O)NO)s1` [Compound I-177, N-hydroxy-2-((1S)-1-{[4-(methylsulfonyl)benzoyl]amino}ethyl)-1,3-thiazole-5-carboxamide], with 6.30 to 7.00.

`C[C@@H](NC(=O)c1cc2ccccc2n1C)c1ccc(C(=O)NO)s1` [Compound I-5, N-((1R)-1-{5-[(hydroxyamino)carbonyl]-2-thienyl}ethyl)-1-methyl-1H-indole-2-carboxamide] showed a pIC50 greater than 7.00. Regarding `CC(NC(=O)Nc1cc(C(F)(F)F)ccc1F)c1ccc(C(=O)NO)s1` (stereo not drawn) [Compound I-7, 5-{1-[({[2-fluoro-5-(trifluoromethyl)phenyl]amino}carbonyl)amino]ethyl}-N-hydroxythiophene-2-carboxamide], the pIC50 was greater than 7.00. In turn, `CC(NC(=O)c1cccn1C)c1ncc(C(=O)NO)s1` (stereo not drawn) [Compound I-52, N-hydroxy-2-(1-{[(1-methyl-1H-pyrrol-2-yl)carbonyl]amino}ethyl)-1,3-thiazole-5-carboxamide] had a pIC50 of 6.30 to 7.00. With `C[C@@H](NC(=O)C12CC3CC(CC(C3)C1)C2)c1ccc(C(=O)NO)s1` [Compound I-11, 5-{(1R)-1-[(1-adamantylcarbonyl)amino]ethyl}-N-hydroxythiophene-2-carboxamide], the pIC50 is less than 6.30. Then `Cc1cccc(C)c1NC(=O)NC(C)c1ccc(C(=O)NO)s1` (stereo not drawn) [Compound I-32, 5-[1-({[(2,6-dimethylphenyl)amino]carbonyl}amino)ethyl]-N-hydroxythiophene-2-carboxamide], with 6.30 to 7.00; and `CC(NC(=O)Nc1ccccc1)c1ccc(C(=O)NO)s1` (stereo not drawn) [Compound I-12, 5-{1-[(anilinocarbonyl)amino]ethyl}-N-hydroxythiophene-2-carboxamide], with greater than 7.00; and `C[C@@H](NC(=O)C1(C)CCCCC1)c1ccc(C(=O)NO)s1` [Compound I-43, N-hydroxy-5-((1R)-1-{[(1-methylcyclohexyl)carbonyl]amino}ethyl)thiophene-2-carboxamide], with less than 6.30. Take `Cc1noc(-c2ccccc2)c1NC(=O)NC(C)c1ccc(C(=O)NO)s1` (stereo not drawn) [Compound I-41, N-hydroxy-5-[1-({[(3-methyl-5-phenylisoxazol-4-yl)amino]carbonyl}amino)ethyl]thiophene-2-carboxamide]: the pIC50 is 6.30 to 7.00.

Take `C[C@H](NC(=O)C(C)(C)C)c1ncc(C(=O)NO)s1` [Compound I-183, 2-{(1S)-1-[(2,2-dimethylpropanoyl)amino]ethyl}-N-hydroxy-1,3-thiazole-5-carboxamide]: the pIC50 is less than 6.30. On to `CC(NS(=O)(=O)c1cn(C)cn1)c1ccc(C(=O)NO)s1` (stereo not drawn) [Compound I-33, N-hydroxy-5-(1-{[(1-methyl-1H-imidazol-4-yl)sulfonyl]amino}ethyl)thiophene-2-carboxamide], for which the pIC50 was 6.30 to 7.00. In the case of `C[C@@H](NC(=O)c1ccc(-c2ccccc2)cc1)c1ccc(C(=O)NO)s1` [Compound I-46, 5-{(1R)-1-[(biphenyl-4-ylcarbonyl)amino]ethyl}-N-hydroxythiophene-2-carboxamide], the pIC50 is greater than 7.00. Then `C[C@H](NC(=O)C12CC3CC(CC(C3)C1)C2)c1ncc(C(=O)NO)s1` [Compound I-179, 2-((1S)-1-{[1-adamantylcarbonyl]amino}ethyl)-N-hydroxy-1,3-thiazole-5-carboxamide], with less than 6.30; and `Cc1ccccc1CNC(=O)NC(C)c1ccc(C(=O)NO)s1` (stereo not drawn) [Compound I-42, N-hydroxy-5-[1-({[(2-methylbenzyl)amino]carbonyl}amino)ethyl]thiophene-2-carboxamide], with greater than 7.00; and `C[C@H](NC(=O)c1cccn1C)c1ncc(C(=O)NO)s1` [Compound I-160, N-hydroxy-2-((1S)-1-{[(1-methyl-1H-pyrrol-2-yl)carbonyl]amino}ethyl)-1,3-thiazole-5-carboxamide], with 6.30 to 7.00. Regarding `CC(NC(=O)NC1CCCCC1)c1ccc(C(=O)NO)s1` (stereo not drawn) [Compound I-24, 5-(1-{[(cyclohexylamino)carbonyl]amino}ethyl)-N-hydroxythiophene-2-carboxamide], the pIC50 was 6.30 to 7.00.

On to `Cc1ccccc1S(=O)(=O)NC(C)c1ccc(C(=O)NO)s1` (stereo not drawn) [Compound I-35, N-hydroxy-5-(1-{[(2-methylphenyl)sulfonyl]amino}ethyl)thiophene-2-carboxamide], for which the pIC50 was 6.30 to 7.00. With `C[C@@H](NC(=O)C12CC3CC(CC(C3)C1)C2)c1cc(C(=O)NO)on1` [Compound I-170, 3-{(1R)-1-[(1-adamantylcarbonyl)amino]ethyl}-N-hydroxyisoxazole-5-carboxamide] the figure was less than 6.30; with `C[C@@H](NC(=O)c1cc2ccccc2o1)c1cc(C(=O)NO)on1` [Compound I-181, (R)-3-(1-(benzofuran-2-carboxamido)ethyl)-N-hydroxyisoxazole-5-carboxamide], less than 6.30.
